Patent US20170209447A1, “Use of PNP Inhibitor to Treat Relapse of Malignancy after Hematopoietic Stem Cell Transplant” (Nitor Therapeutics, priority 2014, published 2017)

Experiments:
[1] = biological target: T1, human TLR9 (Homo sapiens, UniProt Q9NR96); experiment: TLR ligand screening: NF-κB SEAP reporter in HEK293 cells expressing TLR9; format: cell-based; conditions: one concentration: NTR001 10 uM, Inosine 100 uM, triplicate, FIG. 2
T1 construct: expressed in transfected cells; host or cells: HEK293
T1 sequence (Q9NR96 26-1032): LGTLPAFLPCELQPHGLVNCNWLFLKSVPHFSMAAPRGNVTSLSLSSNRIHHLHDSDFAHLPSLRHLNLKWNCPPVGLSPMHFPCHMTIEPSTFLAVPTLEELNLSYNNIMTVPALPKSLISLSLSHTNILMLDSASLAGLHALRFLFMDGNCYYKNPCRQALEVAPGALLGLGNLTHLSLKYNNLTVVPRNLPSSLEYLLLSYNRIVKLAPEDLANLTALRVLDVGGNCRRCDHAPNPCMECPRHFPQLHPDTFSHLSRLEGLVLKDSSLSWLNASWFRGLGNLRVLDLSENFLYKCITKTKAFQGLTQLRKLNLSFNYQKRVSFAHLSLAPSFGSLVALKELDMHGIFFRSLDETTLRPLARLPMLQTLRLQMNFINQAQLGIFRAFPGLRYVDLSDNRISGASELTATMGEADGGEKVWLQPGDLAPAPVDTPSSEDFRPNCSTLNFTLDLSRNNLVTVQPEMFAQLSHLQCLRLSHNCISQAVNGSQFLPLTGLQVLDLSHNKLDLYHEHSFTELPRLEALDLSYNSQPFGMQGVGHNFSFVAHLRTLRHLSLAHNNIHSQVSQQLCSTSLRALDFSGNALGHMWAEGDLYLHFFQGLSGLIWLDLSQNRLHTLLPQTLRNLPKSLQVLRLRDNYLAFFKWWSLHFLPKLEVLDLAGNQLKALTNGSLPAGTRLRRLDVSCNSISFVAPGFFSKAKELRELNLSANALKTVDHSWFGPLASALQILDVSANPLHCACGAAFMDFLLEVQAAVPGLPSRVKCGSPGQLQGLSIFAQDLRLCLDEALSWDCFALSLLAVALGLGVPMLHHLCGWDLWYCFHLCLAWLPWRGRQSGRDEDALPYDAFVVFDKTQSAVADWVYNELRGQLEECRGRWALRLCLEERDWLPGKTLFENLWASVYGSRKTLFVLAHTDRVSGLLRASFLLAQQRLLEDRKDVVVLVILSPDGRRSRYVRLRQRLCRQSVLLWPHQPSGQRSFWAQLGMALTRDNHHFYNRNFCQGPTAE
Description: (§1) Toll-Like Receptor (TLR) Ligand Screening: In-vitro Activity of the PNPi, Guanosine and Inosine on Seven Different Human TLRs (TLR2, 3, 4, 5, 7, 8 and 9) as a Potential Agonist.
(§2) Method: TLR stimulation is tested by assessing NF-KB activation in HEK293 cells expressing a given TLR. The Secreted Embryonic Alkaline Phosphatase (SEAP) reporter is under the control of a promoter inducible by the transcription factor NF-κB.
(§3) This reporter gene allows the monitoring of signaling through the TLR, based on the activation of NF-κB. The compounds are evaluated at one concentration and compared to control ligands. This step is performed in triplicate.

[2] = biological target: T2, human TLR8 (Homo sapiens, UniProt Q9NR97); experiment: TLR ligand screening: NF-κB SEAP reporter in HEK293 cells expressing TLR8; format: cell-based; conditions: one concentration: NTR001 10 uM, Inosine 100 uM, triplicate, FIG. 2
T2 construct: expressed in transfected cells; host or cells: HEK293
T2 sequence (Q9NR97 27-1041): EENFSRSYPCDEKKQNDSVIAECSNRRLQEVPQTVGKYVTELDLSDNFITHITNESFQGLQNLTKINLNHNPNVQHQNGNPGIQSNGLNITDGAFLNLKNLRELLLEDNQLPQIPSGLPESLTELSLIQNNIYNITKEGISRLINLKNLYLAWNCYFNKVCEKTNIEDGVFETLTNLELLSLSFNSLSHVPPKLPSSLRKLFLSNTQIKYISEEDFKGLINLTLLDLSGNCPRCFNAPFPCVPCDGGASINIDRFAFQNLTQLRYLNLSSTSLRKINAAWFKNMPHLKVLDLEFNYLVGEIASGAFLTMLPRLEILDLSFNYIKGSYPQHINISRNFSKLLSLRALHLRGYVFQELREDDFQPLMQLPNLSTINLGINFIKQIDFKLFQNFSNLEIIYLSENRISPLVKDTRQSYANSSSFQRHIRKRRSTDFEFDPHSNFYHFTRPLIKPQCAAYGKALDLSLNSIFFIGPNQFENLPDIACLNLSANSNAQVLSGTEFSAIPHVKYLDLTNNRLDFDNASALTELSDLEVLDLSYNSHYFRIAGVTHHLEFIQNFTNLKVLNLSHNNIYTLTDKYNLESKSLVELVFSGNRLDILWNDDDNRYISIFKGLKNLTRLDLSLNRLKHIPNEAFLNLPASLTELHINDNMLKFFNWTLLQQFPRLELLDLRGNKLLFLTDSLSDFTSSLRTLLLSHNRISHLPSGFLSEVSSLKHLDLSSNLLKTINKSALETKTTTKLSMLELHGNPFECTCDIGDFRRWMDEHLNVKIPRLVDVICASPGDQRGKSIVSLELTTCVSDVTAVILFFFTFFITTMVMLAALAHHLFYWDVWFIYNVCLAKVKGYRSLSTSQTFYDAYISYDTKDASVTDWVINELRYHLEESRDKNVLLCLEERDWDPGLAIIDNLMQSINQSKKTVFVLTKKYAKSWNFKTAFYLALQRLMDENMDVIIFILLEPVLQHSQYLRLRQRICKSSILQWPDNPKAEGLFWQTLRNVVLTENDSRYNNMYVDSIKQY
Description: as §1, §2, §3

[3] = biological target: T3, human TLR2 (Homo sapiens, UniProt O60603); experiment: TLR ligand screening: NF-κB SEAP reporter in HEK293 cells expressing TLR2; format: cell-based; conditions: one concentration: Guanosine 100 uM, NTR001 10 uM, Inosine 100 uM; HEK293; triplicate; FIG. 2
T3 construct: expressed in transfected cells; host or cells: HEK293
Description: as §1, §2, §3

[4] = tested on: L. monocytogenes (ATCC Strain35152, hemolytic substrain); conditions: 30 mg/kg PO or IP, or 2 mg/kg drinking water; 1×10^6 CFU i.v.; FIGS. 7 and 9
[5] = tested on: tetanus toxoid vaccine; experiment: PNPi as adjuvant in tetanus toxoid vaccine efficacy study (tetanus toxoid mouse model); format: in vivo, mice; conditions: compared to vehicle treated group
Description: This Example Evaluates PNPi as an Adjuvant in Tetanus Toxoid Vaccine Efficacy Study.
Method: Tetanus toxoid (TT) was used to vaccinate mice thrice, two weeks apart. Mice were treated by oral administration of compounds NTR001 and NTR002 and serum was collected at various time points for antibody titer and interferon-g analysis. Mice in Groups 2-6 (Table 2) are vaccinated subcutaneously with 0.1 ml tetanus toxoid vaccine on DAYS 0, 14 and 28. Mice in Group 1 (Table 1) received no vaccine. Antibody titers for DAYS 38 are determined by ELISA using tetanus toxoid coated microtiter plates and anti-mouse conjugate. Sera from DAY 30 are assayed by ELISA for interferon-g.

T3 sequence (O60603 21-784): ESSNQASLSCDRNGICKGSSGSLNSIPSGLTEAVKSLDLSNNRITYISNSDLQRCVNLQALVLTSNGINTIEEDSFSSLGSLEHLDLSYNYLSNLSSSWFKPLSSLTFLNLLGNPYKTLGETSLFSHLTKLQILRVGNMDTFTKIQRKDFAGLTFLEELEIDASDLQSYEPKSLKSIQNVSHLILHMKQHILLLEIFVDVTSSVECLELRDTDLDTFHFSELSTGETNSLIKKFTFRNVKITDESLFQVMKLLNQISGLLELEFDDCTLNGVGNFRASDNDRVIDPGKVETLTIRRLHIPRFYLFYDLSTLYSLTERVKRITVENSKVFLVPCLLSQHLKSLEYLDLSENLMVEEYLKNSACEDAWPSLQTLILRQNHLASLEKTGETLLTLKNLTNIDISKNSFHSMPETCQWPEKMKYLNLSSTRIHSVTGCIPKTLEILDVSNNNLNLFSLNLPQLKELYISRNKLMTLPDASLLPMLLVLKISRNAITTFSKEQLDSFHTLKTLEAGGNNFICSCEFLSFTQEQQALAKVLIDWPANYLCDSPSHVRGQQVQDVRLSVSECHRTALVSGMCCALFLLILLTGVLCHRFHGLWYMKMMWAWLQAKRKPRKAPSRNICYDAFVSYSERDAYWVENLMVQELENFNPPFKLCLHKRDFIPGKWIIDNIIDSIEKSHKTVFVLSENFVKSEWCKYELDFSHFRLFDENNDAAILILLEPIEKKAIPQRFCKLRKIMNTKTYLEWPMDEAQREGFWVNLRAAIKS

## OC[C@H]1O[C@@H](n2cnc3c(O)ncnc32)[C@H](O)[C@@H]1O [Inosine, inosine]
[1]
  stimulatory effect on human TLR9 (NF-κB activation): do not exhibit a stimulatory effect
[2]
  stimulatory effect on human TLR8 (NF-κB activation): do not exhibit a stimulatory effect
[3]
  stimulatory effect on human TLR2 (NF-κB activation): do not exhibit a stimulatory effect

## O=c1[nH]cnc2c([C@@H]3N[C@H](CO)[C@@H](O)[C@H]3O)c[nH]c12 [NTR001, 7-[(2S,3S,4R,5R)-3,4-dihydroxy-5-(hydroxymethyl)-2-pyrrolidinyl]-1,5-dihyro-4-H-pyrrolo-[3,2-d]pyrimidin-4-one]
[4]
  weight loss: significant decrease
[5]; day 30, ELISA, high dose group 60 mg/kg p.o., FIG. 4
  serum interferon-g levels: elevated
[5]; day 38, ELISA, p.o. 30 mg/kg (6 days of treatment) and 60 mg/kg (3 days of treatment), FIG. 3
  serum tetanus toxoid antibody titers: significantly elevated
[1]
  stimulatory effect on human TLR9 (NF-κB activation): do not exhibit a stimulatory effect
[2]
  stimulatory effect on human TLR8 (NF-κB activation): do not exhibit a stimulatory effect
[3]
  stimulatory effect on human TLR2 (NF-κB activation): do not exhibit a stimulatory effect
